# Measured values from ChEMBL document CHEMBL4610074, “Somuncurins: Bioactive Peptides from the Skin of the Endangered Endemic Patagonian Frog Pleurodema somuncurense” (J Nat Prod, 2020).
# The source made the active and inactive calls. The rule behind the calls is not given here.
# Tests used:
# Escherichia coli = assay: Antibacterial activity against Escherichia coli ATCC 25922 incubated for 24 hrs under aerobic condition; assay type: functional; details: ATCC 25922, 24 h
# Staphylococcus aureus = assay: Antibacterial activity against Staphylococcus aureus ATCC 29213 incubated for 24 hrs under aerobic condition; assay type: functional; details: ATCC 29213, 24 h
# Lipid bilayer [1] = assay: Binding affinity to Escherichia coli lipid extract large unilamellar vesicles incubated for 30 mins by laser-doppler technique
# Lipid bilayer [2] = assay: Induction of membrane disruption in PC/bovine brain SPM/cholesterol large unilamellar vesicles assessed as carboxyfluorescein leakage at 640 ug/ml by fluorescence assay
# Lipid bilayer [3] = assay: Induction of rearrangement in Escherichia coli lipid extract large unilamellar vesicles assessed as altered colloidal property at 140 ug/ml to 640 ug/ml by dynamic light scattering analysis; assay type: functional
# Lipid bilayer [4] = assay: Induction of lipid aggregation in PC/bovine brain SPM/cholesterol large unilamellar vesicles at 140 ug/ml to 640 ug/ml by dynamic light scattering analysis
# Lipid bilayer [5] = assay: Induction of membrane disruption in Escherichia coli lipid extract large unilamellar vesicles assessed as carboxyfluorescein leakage at 640 ug/ml by fluorescence assay; assay type: functional
# [6] = (§1) Hemolytic activity in human RBC at 180 uM measured after 1 hr relative to control; assay type: ADME, cell-based, Erythrocyte; details: red blood cells (erythrocytes), read-out: Activity
# Lipid bilayer [7] = assay: Binding affinity to Escherichia coli lipid extract large unilamellar vesicles assessed as change in tryptophan emission Spectra incubated for 30 mins by spectrofluorometric method
# [8] = Cytotoxicity against human MDM cells after 24 hrs by resazurin dye based fluorescence assay; assay type: cell-based
# [9] = Effect on LPS-induced ROS production in human CHME3 cells measured for 30 mins by microscopic method; assay type: ADME, cell-based; details: 0.5 h
# Lipid bilayer [10] = assay: Induction of membrane disruption in Escherichia coli lipid extract large unilamellar vesicles assessed as carboxyfluorescein leakage at 250 ug/ml by fluorescence assay; assay type: functional
# Lipid bilayer [11] = assay: Induction of lipid aggregation in Escherichia coli lipid extract large unilamellar vesicles at 270 ug/ml by dynamic light scattering analysis; assay type: functional
# Lipid bilayer [12] = assay: Induction of pore formation in Escherichia coli lipid extract giant unilamellar vesicles at 640 ug/ml after 25 mins by fluorescence confocal microscopy; assay type: functional
# Erythrocyte = assay: as §1; assay type: ADME, cell-based; details: erythrocyte, 1 h, 180 µM
Substance,MIC (Escherichia coli),MIC (Staphylococcus aureus),Activity (Lipid bilayer [1]) [mV],Activity [8],further results
H-DLASLARLYALAR-NH2,> 700 µg/mL,> 700 µg/mL,–,–,–
H-DLLNGLLNPVLGIANGLTGGLVKK-NH2,> 700 µg/mL,> 700 µg/mL,–,–,–
H-FIIWPLRYRK-NH2,180 µM,360 µM,36,Non-Toxic,"Activity (Lipid bilayer [2]): 20%; Activity (Lipid bilayer [3]): Active; Activity (Lipid bilayer [4]): Non-Toxic; Activity (Lipid bilayer [5]): 100%; hemolysis at 1 h, 180 µM [6]: < 5%; Activity (Lipid bilayer [7]): inactive; Activity [9]: Non-Toxic; Activity (Lipid bilayer [10]): Active; Activity (Lipid bilayer [11]): Active; Activity (Lipid bilayer [12]): inactive"
H-FILKRSYPQYY-NH2,410 µM,> 700 µg/mL,23,Non-Toxic,Activity (Erythrocyte): Non-Toxic; Activity [9]: Non-Toxic
H-NLVGSLLGGILKK-NH2,460 µM,> 700 µg/mL,18,Non-Toxic,Activity (Erythrocyte): Non-Toxic
H-NNEENELRRRVSFNRAVIHSLLG-NH2,> 700 µg/mL,> 700 µg/mL,–,–,–
H-VSFNRAVIHSLLG-NH2,> 700 µg/mL,> 700 µg/mL,–,–,–
H-YYQVSEERRRDLASLARLYALAR-NH2,> 700 µg/mL,> 700 µg/mL,–,–,–
